In patent US8293781B2, “Indole derivatives having cPLA2 inhibiting activity and applications and production methods of the same” (Daiichi Sankyo Company, Limited, priority 2007, dated 2012) one finds IC50 data, which are given here for 32 molecules.

Structures are written as SMILES. Where a name gives a salt, the structure may show the parent alone.

In one assay the target is T1, cPLA2 crudely purified from the cytoplasm fraction of U937 (Homo sapiens, UniProt P47712).
T1 construct: cPLA2 crudely purified from the cytoplasm fraction of U937; endogenous in cells; host or cells: U937 cells (cytoplasm fraction, crude purification)
T1 sequence (P47712 1-749): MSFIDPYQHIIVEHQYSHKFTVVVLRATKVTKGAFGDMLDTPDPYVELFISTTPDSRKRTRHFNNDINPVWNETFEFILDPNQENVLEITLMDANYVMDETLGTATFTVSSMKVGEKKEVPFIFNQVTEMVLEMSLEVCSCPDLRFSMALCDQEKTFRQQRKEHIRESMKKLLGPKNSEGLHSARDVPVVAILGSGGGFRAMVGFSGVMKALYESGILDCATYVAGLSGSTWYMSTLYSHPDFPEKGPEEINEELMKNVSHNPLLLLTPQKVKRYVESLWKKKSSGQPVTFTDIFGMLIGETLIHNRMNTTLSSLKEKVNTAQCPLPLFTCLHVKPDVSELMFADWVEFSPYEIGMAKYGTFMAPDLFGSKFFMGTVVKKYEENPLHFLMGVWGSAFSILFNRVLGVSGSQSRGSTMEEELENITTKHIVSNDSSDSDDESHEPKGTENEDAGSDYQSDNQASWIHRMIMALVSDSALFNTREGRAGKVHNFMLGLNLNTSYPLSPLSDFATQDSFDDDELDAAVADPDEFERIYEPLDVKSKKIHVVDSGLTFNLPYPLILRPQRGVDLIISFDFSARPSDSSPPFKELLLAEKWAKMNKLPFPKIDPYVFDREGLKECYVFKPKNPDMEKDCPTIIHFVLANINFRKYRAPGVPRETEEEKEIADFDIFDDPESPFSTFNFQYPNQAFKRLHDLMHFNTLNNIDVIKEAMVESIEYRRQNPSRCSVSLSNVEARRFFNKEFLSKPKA
In words: Measurement of cPLA2 inhibitory activity (release of [14C]-arachidonic acid from phosphatidyl choline liposome). It is filed as biochemical.
Settings: not given
How it is done: The cPLA2 inhibitory activity was measured based on the method described in the document [See H. Naraba et al., J. Immunol. 160, 2974-2982 (1998)] and modified in the following way.
A DMSO solution of the present invitation compounds was diluted to 2.5 times the final concentration with the assay buffer (4 mM CaCl2, 2 mM dithiothreitol, 150 mM NaCl, 50 mM HEPES buffer solution (pH7.5)) containing 0.55 mg/ml BSA. To 20 μl of this, cPLA2 crudely purified from the cytoplasm fraction of U937 was added in an amount of 10 μl after dilution by an assay buffer solution containing 0.55 mg/ml BSA. A liposome prepared by ultrasonically treating L-α-1-palmitoyl-2-[14C]arachidonyl-phosphatidyl choline (made by PerkinElmer) and adjusted by the assay buffer solution to a concentration of phosphatidyl choline of 10 μM was added and stirred in by an amount of 20 μl and the mixture was reacted at 37° C. for 60 minutes. The [^14C]-arachidonic acid released due to the reaction was extracted based on the method described in the documents [see V. P. Dole et al., J. Biol. Chem. 235, 2595 (1960)], was added to Lumaplate® (made by PerkinElmer), dried, then measured by Topcount® (made by PerkinElmer). Except for not adding the present invention compounds, the same procedure was performed as the above to obtain the enzyme control. Except for not adding the invention compounds and not adding the enzyme, the same procedure was followed as above to obtain a negative control. The inhibiting activity was expressed as a percent (%) of the value minus the negative control with respect to the value of the enzyme control minus the negative control. From this, the 50% inhibiting concentration (IC50, μM) was calculated.
`O=C(O)/C=C/c1ccc2c(c1)c(C(=O)c1ccccc1)cn2-c1ccccc1` [Example 3, (2E)-3-(3-benzoyl-1-phenyl-1H-indol-5-yl)-2-propenoic acid] displayed an IC50 of 0.494 µM.
The same measure, in the same setting: to `O=C(O)CCc1ccc2c(c1)c(C(=O)c1ccccc1)cn2-c1ccccc1` [Example 4, 3-(3-benzoyl-1-phenyl-1H-indol-5-yl)propanoic acid] belongs 0.146 µM.
Still for that read-out and setting: next, `O=C(O)/C=C/c1ccc2c(c1)c(C(=O)Cc1ccccc1)cn2-c1ccccc1` [Example 11, (2E)-3-[1-phenyl-3-(phenylacetyl)-1H-indol-5-yl]-2-propenoic acid]: 1.91 µM; `O=C(O)CCc1ccc2c(c1)c(C(=O)Cc1ccccc1)cn2-c1ccccc1` [Example 12, 3-[1-phenyl-3-(phenylacetyl)-1H-indol-5-yl]propanoic acid]: 0.261 µM.
On the same count and under the same terms, next, `Cc1c(C(=O)Cc2ccccc2)c2cc(/C=C/C(=O)O)ccc2n1-c1ccccc1` [Example 44, (2E)-3-[2-methyl-1-phenyl-3-(phenylacetyl)-1H-indol-5-yl]-2-propenoic acid]: 0.421 µM; `Cc1c(C(=O)Cc2ccccc2)c2cc(CCC(=O)O)ccc2n1-c1ccccc1` [Example 45, 3-[2-methyl-1-phenyl-3-(phenylacetyl)-1H-indol-5-yl]propanoic acid]: 0.225 µM.
The molecule `O=C(O)/C=C/c1ccc2c(c1)c(C(=O)c1cccc3ccccc13)cn2-c1ccccc1` [Example 50, (2E)-3-[3-(1-naphthoyl)-1-phenyl-1H-indol-5-yl]-2-propenoic acid] yielded an IC50 of 6.99 µM.
Same read-out and setting: next, `O=C(O)CCc1ccc2c(c1)c(Cc1cccc3ccccc13)cn2-c1ccccc1` [Example 51, 3-[3-(1-naphthylmethyl)-1-phenyl-1H-indol-5-yl]propanoic acid]: 0.704 µM.
On the same count and under the same terms, to `O=C(O)/C=C/c1ccc2c(c1)c(C(=O)c1ccc3ccccc3c1)cn2-c1ccccc1` [Example 53, (2E)-3-[3-(2-naphthoyl)-1-phenyl-1H-indol-5-yl]-2-propenoic acid] belongs 5.52 µM; to `O=C(O)/C=C/c1ccc2c(c1)c(C(=O)Cc1ccc(Cl)cc1)cn2-c1ccccc1` [Example 56, (2E)-3-{3-[(4-chlorophenyl)acetyl]-1-phenyl-1H-indol-5-yl}-2-propenoic acid], 6.4 µM; to `O=C(O)CCc1ccc2c(c1)c(C(=O)Cc1ccc(Cl)cc1)cn2-c1ccccc1` [Example 57, 3-{3-[(4-chlorophenyl)acetyl]-1-phenyl-1H-indol-5-yl}propanoic acid], 1.39 µM.

Staying with this assay, now noted: cPLA2 from U937 cytoplasm fraction, [14C]arachidonyl-phosphatidyl choline liposome, 37° C., 60 minutes; read-out: cPLA2 inhibitory activity, 50% inhibiting concentration IC50.
Regarding `O=C(O)/C=C/c1ccc2c(c1)c(Cc1ccccc1)cn2-c1ccccc1` [Example 7, (2E)-3-(3-benzyl-1-phenyl-1H-indol-5-yl)-2-propenoic acid], the IC50 stood at 1.04 µM.
Still for that read-out and setting: next, `O=C(O)CCc1ccc2c(c1)c(Cc1ccccc1)cn2-c1ccccc1` [Example 8, 3-(3-benzyl-1-phenyl-1H-indol-5-yl)propanoic acid]: 0.182 µM; `O=C(O)/C=C/c1ccc2c(c1)c(CCc1ccccc1)cn2-c1ccccc1` [Example 15, (2E)-3-[1-phenyl-3-(2-phenylethyl)-1H-indol-5-yl]-2-propenoic acid]: 0.316 µM.
For the molecule `O=C(O)CCc1ccc2c(c1)c(CCc1ccccc1)cn2-c1ccccc1` [Example 16, 3-[1-phenyl-3-(2-phenylethyl)-1H-indol-5-yl]propanoic acid], the IC50 came out at 0.075 µM.
As to `N#CNC(=O)CCc1ccc2c(c1)c(CCc1ccccc1)cn2-c1ccccc1` [Example 18, N-cyano-3-[1-phenyl-3-(2-phenylethyl)-1H-indol-5-yl]propanamide], the IC50 turned out to be 0.976 µM.
Same read-out and setting: to `O=C(CCc1ccc2c(c1)c(CCc1ccccc1)cn2-c1ccccc1)Nc1nnn[nH]1` [Example 19, 3-[1-phenyl-3-(2-phenylethyl)-1H-indol-5-yl]-N-tetrazolylpropanamide] belongs 10.8 µM.
On the same count and under the same terms, to `O=C(CCc1ccc2c(c1)c(CCc1ccccc1)cn2-c1ccccc1)NO` [Example 21, N-hydroxy-3-[1-phenyl-3-(2-phenylethyl)-1H-indol-5-yl]propanamide] belongs 15.8 µM; to `NC(=O)CCc1ccc2c(c1)c(CCc1ccccc1)cn2-c1ccccc1` [Example 22, 3-[1-phenyl-3-(2-phenylethyl)-1H-indol-5-yl]propanamide], over 100 µM.
Same read-out and setting: to `c1ccc(CCc2cn(-c3ccccc3)c3ccc(CCc4nnn[nH]4)cc23)cc1` [Example 24, 1-phenyl-3-(2-phenylethyl)-5-[2-(1H-tetrazol-5-yl)ethyl]-1H-indole] belongs 12.8 µM; to `CC(C(=O)c1cn(-c2ccccc2)c2ccc(/C=C/C(=O)O)cc12)c1ccccc1` (centres unmarked) [Example 26, (2E)-3-[1-phenyl-3-(2-phenylpropanoyl)-1H-indol-5-yl]-2-propenoic acid], 3.4 µM; to `CC(C(=O)c1cn(-c2ccccc2)c2ccc(CCC(=O)O)cc12)c1ccccc1` (centres unmarked) [Example 27, 3-[1-phenyl-3-(2-phenylpropanoyl)-1H-indol-5-yl]propanoic acid 2-amino-2-(hydroxymethyl)propane-1,3-diol salt (1:1)], 0.385 µM.
Take `CC(Cc1cn(-c2ccccc2)c2ccc(CCC(=O)O)cc12)c1ccccc1` (centres unmarked) [Example 28, 3-[1-phenyl-3-(2-phenylpropyl)-1H-indol-5-yl]propanoic acid 2-amino-2-(hydroxymethyl)propane-1,3-diol salt (1:1)]: the IC50 amounted to 0.258 µM.
Turning to `CC(Cc1cn(-c2ccccc2)c2ccc(CCC(N)=O)cc12)c1ccccc1` (centres unmarked) [Example 29, 3-[1-phenyl-3-(2-phenylpropyl)-1H-indol-5-yl]propanamide], the IC50 stood at 21.3 µM.
On the same count and under the same terms, to `CC(Cc1cn(-c2ccccc2)c2ccc(/C=C/C(=O)O)cc12)c1ccccc1` (centres unmarked) [Example 33, (2E)-3-[1-phenyl-3-(2-phenylpropyl)-1H-indol-5-yl]-2-propenoic acid] belongs 0.662 µM; to `CCC(C(=O)c1cn(-c2ccccc2)c2ccc(/C=C/C(=O)O)cc12)c1ccccc1` (centres unmarked) [Example 35, (2E)-3-[1-phenyl-3-(2-phenylbutanoyl)-1H-indol-5-yl]-2-propenoic acid], 5.81 µM; to `CCC(C(=O)c1cn(-c2ccccc2)c2ccc(CCC(=O)O)cc12)c1ccccc1` (centres unmarked) [Example 36, 3-[1-phenyl-3-(2-phenylbutanoyl)-1H-indol-5-yl]propanoic acid 2-amino-2-(hydroxymethyl)propane-1,3-diol salt (1:1)], 0.33 µM.
Same read-out and setting: next, `CCC(Cc1cn(-c2ccccc2)c2ccc(CCC(=O)O)cc12)c1ccccc1` (centres unmarked) [Example 37, 3-[1-phenyl-3-(2-phenylbutyl)-1H-indol-5-yl]propanoic acid 2-amino-2-(hydroxymethyl)propane-1,3-diol salt (1:1)]: 1.45 µM; `O=C(O)/C=C/c1ccc2c(c1)c(C(=O)C1(c3ccccc3)CC1)cn2-c1ccccc1` [Example 39, (2E)-3-{1-phenyl-3-[(1-phenylcyclopropyl)carbonyl]-1H-indol-5-yl}-2-propenoic acid]: 10.8 µM; `O=C(O)CCc1ccc2c(c1)c(C(=O)C1(c3ccccc3)CC1)cn2-c1ccccc1` [Example 40, 3-{1-phenyl-3-[(1-phenylcyclopropyl)carbonyl]-1H-indol-5-yl}propanoic acid]: 2.3 µM.
Still for that read-out and setting: to `O=C(O)CCc1ccc2c(c1)c(CC1(c3ccccc3)CC1)cn2-c1ccccc1` [Example 41, 3-{1-phenyl-3-[(1-phenylcyclopropyl)methyl]-1H-indol-5-yl}propanoic acid 2-amino-2-(hydroxymethyl)propane-1,3-diol salt (1:1)] belongs 0.634 µM.
With `O=C(O)CCc1ccc2c(c1)c(Cc1ccc3ccccc3c1)cn2-c1ccccc1` [Example 54, 3-[3-(2-naphthylmethyl)-1-phenyl-1H-indol-5-yl]propanoic acid], the IC50 came to 6.12 µM.
